Experimental findings from patent publication US20090286827A1, “NOVEL BI-ARYL AMINES” (priority 2006, published 2009) are described below.

The target in the test is T1, mGluR5 (Homo sapiens, UniProt P41594).
T1 construct: expressed in transfected cells
T1 sequence (P41594 21-1180 isoform P41594-2 limits assumed): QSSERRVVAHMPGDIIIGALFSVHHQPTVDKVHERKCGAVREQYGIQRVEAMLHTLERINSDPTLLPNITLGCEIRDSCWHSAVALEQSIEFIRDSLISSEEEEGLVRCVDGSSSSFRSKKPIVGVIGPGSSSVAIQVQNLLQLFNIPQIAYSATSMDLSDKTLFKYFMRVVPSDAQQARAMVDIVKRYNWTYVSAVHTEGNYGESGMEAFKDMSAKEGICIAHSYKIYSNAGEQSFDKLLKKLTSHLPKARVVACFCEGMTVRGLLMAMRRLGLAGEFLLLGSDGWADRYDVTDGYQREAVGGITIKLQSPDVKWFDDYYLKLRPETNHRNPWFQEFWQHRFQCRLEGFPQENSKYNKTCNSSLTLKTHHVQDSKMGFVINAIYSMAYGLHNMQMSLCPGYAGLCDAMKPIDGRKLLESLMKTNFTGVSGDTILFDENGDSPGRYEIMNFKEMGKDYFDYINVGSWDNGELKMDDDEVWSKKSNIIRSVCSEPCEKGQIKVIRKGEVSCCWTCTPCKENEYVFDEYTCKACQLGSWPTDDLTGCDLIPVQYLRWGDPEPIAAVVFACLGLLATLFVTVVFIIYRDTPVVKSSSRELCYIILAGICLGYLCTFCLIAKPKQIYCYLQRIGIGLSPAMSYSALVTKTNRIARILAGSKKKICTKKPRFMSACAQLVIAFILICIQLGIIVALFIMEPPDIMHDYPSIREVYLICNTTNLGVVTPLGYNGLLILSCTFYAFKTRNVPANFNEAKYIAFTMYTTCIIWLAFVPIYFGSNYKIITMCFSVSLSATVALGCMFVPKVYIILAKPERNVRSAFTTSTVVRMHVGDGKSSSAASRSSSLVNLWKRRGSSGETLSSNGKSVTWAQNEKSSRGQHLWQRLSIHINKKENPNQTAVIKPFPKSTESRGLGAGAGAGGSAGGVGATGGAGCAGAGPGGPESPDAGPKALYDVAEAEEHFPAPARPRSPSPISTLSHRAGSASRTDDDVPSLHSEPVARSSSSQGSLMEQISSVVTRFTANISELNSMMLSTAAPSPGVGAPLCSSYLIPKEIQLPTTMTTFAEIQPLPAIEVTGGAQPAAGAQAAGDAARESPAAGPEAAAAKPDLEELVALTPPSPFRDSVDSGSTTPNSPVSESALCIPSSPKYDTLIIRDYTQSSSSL
Kind of test: inhibition of the glutamate induced elevation of intracellular Ca2+-concentration. It is filed as cell-based. The settings on record: inhibition of glutamate induced elevation of intracellular Ca2+ at a concentration of 10 μM; read-out: mGluR5 Activity inh. at 10 μM [%]. An excerpt:
This can be determined in vitro for example at recombinant human metabotropic glutamate receptors, especially PLC-coupled subtypes thereof such as mGluR5, using different procedures like, for example, measurement of the inhibition of the agonist induced elevation of intracellular Ca^2+ concentration in accordance with L. P. Daggett et al., Neuropharm. Vol. 34, pages 871-886 (1995), P. J. Flor et al., J. Neurochem. Vol. 67, pages 58-63 (1996) or by determination to what extent the agonist induced elevation of the inositol phosphate turnover is inhibited as described by T. Knoepfel et al., Eur. J. Pharmacol. Vol. 288, pages 389-392 (1995), L. P. Daggett et al., Neuropharm. Vol. 34, pages 871-886 (1995) and references cited therein. Isolation and expression of human mGluR subtypes are described in U.S. Pat. No. 5,521,297. Selected agents of the invention show IC50 values for the inhibition of the agonist (e.g. glutamate or quisqualate) induced elevation of intracellular Ca2+ concentration or the agonist (e.g. glutamate or quisqualate) induced inositol phosphate turnover, measured in recombinant cells expressing hmGluR5a of about 1 nM to about 50 μM.
Activity of compounds of the present invention was examined by measurement of the inhibition of the glutamate induced elevation of intracellular Ca^2+-concentration following similar methods than those described in L. P. Daggett et al., Neuropharm. Vol. 34, pages 871-886 (1995), P. J. Flor et al., J. Neurochem. Vol. 67, pages 58-63 (1996).
The table below represents percentages of inhibition of the glutamate induced elevation of intracellular Ca^2+-concentration at a concentration of 10 μM.
With `CC(C)n1cnnc1-c1ccc(Nc2ccc(Cl)cc2)nc1` [Compound 12, (4-Chloro-phenyl)-[5-(4-isopropyl-4H-[1,2,4]triazol-3-yl)-pyridin-2-yl]-amine], the inhibition at 10 µM stood at 40%.
For `CCn1cc(C)nc1-c1cnc(Nc2ccc(Cl)cc2)c(Cl)c1` [Compound 32, [3-Chloro-5-(1-ethyl-4-methyl-1H-imidazol-2-yl)-pyridin-2-yl]-(4-chloro-phenyl)-amine], the inhibition at 10 µM came out at 95%.
For `Clc1ccc(Nc2ccc(-c3nccn3-c3ccccc3)cn2)cc1` [Compound 9, (4-Chloro-phenyl)-[5-(1-phenyl-1H-imidazol-2-yl)-pyridin-2-yl]-amine] the value was 63%.
For `CC(C)Cn1ccnc1-c1ccc(Nc2ccc(Cl)cc2)nc1` [Compound 5, (4-Chloro-phenyl)-[5-(1-isobutyl-1H-imidazol-2-yl)-pyridin-2-yl]-amine] the value was 95%; for `CCn1cc(C(C)(C)C)nc1-c1cnc(Nc2ccc(Cl)cc2)c(Cl)c1` [Compound 39, [5-(4-tert-Butyl-1-ethyl-1H-imidazol-2-yl)-3-chloro-pyridin-2-yl]-(4-chloro-phenyl)-amine], 97%; for `Clc1ccc(Nc2ccc(-c3nnc4n3CCCC4)cn2)cc1` [Compound 13, (4-Chloro-phenyl)-[5-(5,6,7,8-tetrahydro-[1,2,4]triazolo[4,3-a]pyridin-3-yl)-pyridin-2-yl]-amine], 95%.
For `CCCCn1cc(CC)nc1-c1cnc(Nc2ccc(Cl)cc2)c(Cl)c1` [Compound 35, [5-(1-Butyl-4-ethyl-1H-imidazol-2-yl)-3-chloro-pyridin-2-yl]-(4-chloro-phenyl)-amine] the value was 100%; for `CCCn1cc(CC)nc1-c1cnc(Nc2ccc(Cl)cc2)c(Cl)c1` [Compound 34, [3-Chloro-5-(4-ethyl-1-propyl-1H-imidazol-2-yl)-pyridin-2-yl]-(4-chloro-phenyl)-amine], 100%; for `Cc1cncn1-c1cnc(Nc2ccc(Cl)cc2)c(Cl)c1` [Compound 48, [3-Chloro-5-(5-methyl-imidazol-1-yl)-pyridin-2-yl]-(4-chloro-phenyl)-amine], 32%.
As for `Cc1cnc(-c2cnc(Nc3ccc(Cl)cc3)c(Cl)c2)n1C` [Compound 31, [3-Chloro-5-(1,5-dimethyl-1H-imidazol-2-yl)-pyridin-2-yl]-(4-chloro-phenyl)-amine], the inhibition at 10 µM was found to be 48%.
Regarding `CC(C)Cn1nnnc1-c1cnc(Nc2ccc(Cl)cc2)c(Cl)c1` [Compound 23, [3-Chloro-5-(1-isobutyl-1H-tetrazol-5-yl)-pyridin-2-yl]-(4-chloro-phenyl)-amine], the inhibition at 10 µM was determined as 53%.
As to `Clc1ccc(Nc2ncc(-c3nnc4n3CCCCCCC4)cc2Cl)cc1` [Compound 27, [3-Chloro-5-(6,7,8,9,10,11-hexahydro-5H-[1,2,4]triazolo[4,3-a]azonin-3-yl)-pyridin-2-yl]-(4-chloro-phenyl)-amine], the inhibition at 10 µM came out at 100%.
Regarding `Clc1ccc(Nc2ccc(-c3nccn3Cc3ccccc3)cn2)cc1` [Compound 8, [5-(1-Benzyl-1H-imidazol-2-yl)-pyridin-2-yl]-(4-chloro-phenyl)-amine], the inhibition at 10 µM was found to be 36%.
`CCn1cccc1-c1cnc(Nc2ccc(Cl)cc2)c(Cl)c1` [Compound 28, [3-Chloro-5-(1-ethyl-1H-pyrrol-2-yl)-pyridin-2-yl]-(4-chloro-phenyl)-amine]: the inhibition at 10 µM came out at 31%.
